Assay results: US20200031784A1, “OZANIMOD ADDITION SALT CRYSTAL, PREPARATION METHOD, PHARMACEUTICAL COMPOSITION, AND USES” (Solipharma LLC, priority 2017, published 2020)
Where a name gives a salt, the structure may show the parent alone. Read-outs that look alike come from different tables or passages of the source.

Experiments:
Type in all cases: physicochemical
[1] = Phase stability in aqueous system, slurry for 5 days (Comparative Example 2); conditions: slurry 5 days
Description: The phase stability of crystalline forms of ozanimod salts of Examples 1 to 124 and ozanimod hydrochloride crystalline form of Preparation Example 2 were tested in aqueous system.

[2] = Isothermal adsorption curve (dynamic vapor sorption), weight change; conditions: in the range of 0% to 50%
Description: Dynamic vapor sorption data and isothermal sorption data are collected on TA Instruments Q5000 TGA. A sample of 1 to 10 mg is usually placed in a platinum pan; and the TA software records the change in weight of the sample during relative humidity from 0% to 80% to 0%. Depending on the specifics of the sample, different adsorption and desorption steps are also applied to the sample.

[3] = Water solubility of crystalline ozanimod salt forms (Comparative Example 1)
Description: The water solubility of crystalline forms of ozanimod salts of Examples 1 to 124 and ozanimod hydrochloride of Preparation Example 2 were tested.

Slurry for 5 days in ethanol/water (1:1) (solid state after slurry) [1]	Slurry for 5 days in water (solid state after slurry) [1]	weight change according to the isothermal adsorption curve [2] [%]	25° C. water solubility ([3]; 25° C.) [µg/mL]	37° C. water solubility ([3]; 37° C.) [µg/mL]	solubility ([3]; 25° C., read-out: 25° C. water solubility) [µg/mL]	solubility ([3]; 37° C., read-out: 37° C. water solubility) [µg/mL]	Structure (SMILES)
Crystalline	Crystalline						CC(C)Oc1ccc(-c2nc(-c3cccc4c3CC[C@@H]4NCCO)no2)cc1C#N.O=C(O)C(O)C(O)C(=O)O [Ozanimod L-tartrate Form 1]
Crystalline	Crystalline	0.05					CC(C)Oc1ccc(-c2nc(-c3cccc4c3CC[C@@H]4NCCO)no2)cc1C#N.O=S(=O)(O)c1ccccc1 [Ozanimod besylate Form 1]
Crystalline	Crystalline						CC(C)Oc1ccc(-c2nc(-c3cccc4c3CCC4NCCO)no2)cc1C#N.O=C(O)CC(O)(CC(=O)O)C(=O)O (stereo not drawn) [Ozanimod citrate Form 1]
Crystalline	Crystalline		2540	7710			CC(C)Oc1ccc(-c2nc(-c3cccc4c3CC[C@@H]4NCCO)no2)cc1C#N.O=P(O)(O)O [Ozanimod dihydrogen phosphate Form 1]
Crystalline	Crystalline		2340	4550			CC(C)Oc1ccc(-c2nc(-c3cccc4c3CC[C@@H]4NCCO)no2)cc1C#N.O=C(O)/C=C/C(=O)O [Ozanimod fumarate Form 1]
Crystalline	Crystalline		10550	22620			CC(C)Oc1ccc(-c2nc(-c3cccc4c3CC[C@@H]4NCCO)no2)cc1C#N.CC(C)Oc1ccc(-c2nc(-c3cccc4c3CC[C@@H]4NCCO)no2)cc1C#N.O=C(O)C[C@H](O)C(=O)O [Ozanimod hemi-L-malate Form 1]
Crystalline	Crystalline						CC(C)Oc1ccc(-c2nc(-c3cccc4c3CCC4NCCO)no2)cc1C#N.CC(C)Oc1ccc(-c2nc(-c3cccc4c3CCC4NCCO)no2)cc1C#N.O=C(O)C=CC(=O)O (stereo not drawn) [Ozanimod hemi-fumarate Form 1]
Crystalline	Crystalline						CC(C)Oc1ccc(-c2nc(-c3cccc4c3CCC4NCCO)no2)cc1C#N.CC(C)Oc1ccc(-c2nc(-c3cccc4c3CCC4NCCO)no2)cc1C#N.O=S(=O)(O)O (stereo not drawn) [Ozanimod hemisulfate Form 1]
Crystalline	Crystalline		780	3490			Br.CC(C)Oc1ccc(-c2nc(-c3cccc4c3CC[C@@H]4NCCO)no2)cc1C#N [Ozanimod hydrobromide Form 1]
Weak crystallinity	Amorphous	0.14			610	2450	CC(C)Oc1ccc(-c2nc(-c3cccc4c3CC[C@@H]4NCCO)no2)cc1C#N [Ozanimod hydrochloride form, reference compound]
Crystalline	Crystalline						CC(C)Oc1ccc(-c2nc(-c3cccc4c3CCC4NCCO)no2)cc1C#N.O=S(=O)(O)O (stereo not drawn) [Ozanimod hydrosulfate Form 1]
Crystalline	Crystalline		1200	5290			CC(C)Oc1ccc(-c2nc(-c3cccc4c3CC[C@@H]4NCCO)no2)cc1C#N.O=C(O)/C=C\C(=O)O [Ozanimod maleate Form 1]
Crystalline	Crystalline		17600	53820			CC(C)Oc1ccc(-c2nc(-c3cccc4c3CC[C@@H]4NCCO)no2)cc1C#N.CS(=O)(=O)O [Ozanimod mesylate Form 1]
